In patent US8470889B2 (TRT Pharma Inc., priority 2008, dated 2013):
Read-outs that look alike come from different tables or passages of the source.

Legend:
PC-3 cells = assay: MTT cell growth inhibition, PC-3
Experimental: (§1) MDA PCa 2b was seeded at the same density in medium BRFF-HPC1 (Athena Enzyme Systems, Baltimore, Md., USA) supplemented with 20% FBS. After overnight incubation, the medium was changed to a fresh medium containing different concentrations of test compounds diluted from stock DMSO solution. The final concentration of DMSO is 0.5%. After 72 h of incubation with test compounds, 20 μL of 3-(4,5-dimethyl thiazol-2-yl)-2,5-diphenyltetrazolium bromide (MTT) solution (5 mg/mL in PBS) were added to each well and incubated further for 2 h. Next, the supernatant was aspirated and the MTT formazan formed by metabolically viable cells was dissolved in 100 μL of isopropanol. The plates were mixed for 30 min, and the absorbance was measured at 600 nm on a plate reader (FLUOstar OPTIMA, BMG LabTech). All samples were in triplicate. The IC50 values were determined from dose-response curves by nonlinear regression using PRISM v5.00 (GraphPad Software Inc, La Jolla, Calif., USA).
(§2) The in vitro cytotoxicity of 1-20 were evaluated by MTT assays in a panel of prostate cancer cell lines, including LNCaP, MDA PCa 2b, 22Rv1, C4-2B and PC-3.

LNCaP cells = assay: MTT cell growth inhibition, LNCaP;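 further: MTT formazan absorbance at 600 nm read after 72 h of compound exposure, IC50 fitted by nonlinear regression of dose-response curves, samples run in triplicate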
Experimental: as §1, §2

22Rv1 cells = assay: MTT cell growth inhibition, 22Rv1; conditions: read-out: Cellular IC50 (μM) 22Rv1, MTT
Experimental: as §1, §2

C4-2B cells = assay: MTT cell growth inhibition, C4-2B;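 further: cells treated with a dilution series for 72 h, then MTT added and absorbance read at 600 nm, IC50 fitted from dose-response curves by nonlinear regression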
[1] = read-out: Cellular IC50 (μM) PC3, Table 8
[2] = read-out: Cellular IC50 (μM) LNCaP, Table 8
[3] = read-out: Cellular IC50 (μM) C4-2B, Table 8
[4] = read-out: Cellular IC50 (μM) PC-3, Table 9
[5] = read-out: Cellular IC50 (μM) LNCaP, Table 9

CC1=C(/C=C/C(=O)/C=C/c2ccc(Oc3ccccc3)cc2)C(C)(C)CCC1O (stereo not shown) [Compound B56]
IC50 (PC-3 cells; [1]): 11.5 µM
IC50 (LNCaP cells; [2]): 10.4 µM
IC50 (22Rv1 cells; Table 8): 10.4 µM
IC50 (C4-2B cells; [3]): 7.5 µM

CC1=C(/C=C/C(=O)/C=C/c2ccc(-c3ccccc3)cc2)C(C)(C)CCC1O (stereo not shown) [Compound B57]
IC50 (PC-3 cells; [1]): 11.9 µM
IC50 (LNCaP cells; [2]): 2.9 µM
IC50 (22Rv1 cells; Table 8): 5.2 µM
IC50 (C4-2B cells; [3]): 6 µM

CC1=C(/C=C/C(=O)/C=C/c2ccc(-c3cncnc3)cc2)C(C)(C)CCC1O (stereo not shown) [Compound B58]
IC50 (PC-3 cells; [1]): 4.3 µM
IC50 (LNCaP cells; [2]): 1.5 µM
IC50 (22Rv1 cells; Table 8): 3.8 µM
IC50 (C4-2B cells; [3]): 2.1 µM

CC1=C(/C=C/C(=O)/C=C/c2ccc(N3CCCCC3)cc2)C(C)(C)CCC1O (stereo not shown) [Compound B59]
IC50 (PC-3 cells; [1]): 22.5 µM
IC50 (LNCaP cells; [2]): 17.8 µM
IC50 (22Rv1 cells; Table 8): 31.2 µM
IC50 (C4-2B cells; [3]): 19.7 µM

CC1=C(/C=C/C(=O)/C=C/c2ccc(N3CCOCC3)cc2)C(C)(C)CCC1O (stereo not shown) [Compound B60]
IC50 (PC-3 cells; [1]): 16 µM
IC50 (LNCaP cells; [2]): 3.9 µM

CCOC(OCC)c1ccc(/C=C/C(=O)/C=C/C2=C(C)C(O)CCC2(C)C)cc1 (stereo not shown) [Compound B61]
IC50 (PC-3 cells; [1]): 3.7 µM
IC50 (LNCaP cells; [2]): 1.8 µM
IC50 (22Rv1 cells; Table 8): 2.1 µM
IC50 (C4-2B cells; [3]): 1.7 µM

CC1=C(/C=C/C(=O)/C=C/c2ccc(N(CCO)CCO)cc2)C(C)(C)CCC1O (stereo not shown) [Compound B62]
IC50 (PC-3 cells; [1]): 6.9 µM
IC50 (LNCaP cells; [2]): 1.4 µM
IC50 (22Rv1 cells; Table 8): 4.3 µM
IC50 (C4-2B cells; [3]): 1.7 µM

CC1=C(/C=C/C(=O)/C=C/c2ccc(N(C)C)cc2)C(C)(C)CCC1O (stereo not shown) [Compound B63]
IC50 (PC-3 cells; [1]): 13 µM
IC50 (LNCaP cells; [2]): 8.8 µM
IC50 (22Rv1 cells; Table 8): 42 µM

CC1=C(/C=C/C(=O)/C=C/c2ccccc2C)C(C)(C)CCC1O (stereo not shown) [Compound B64]
IC50 (PC-3 cells; [1]): 7.6 µM
IC50 (LNCaP cells; [2]): 2.5 µM
IC50 (22Rv1 cells; Table 8): 4.6 µM
IC50 (C4-2B cells; [3]): 2.7 µM

COc1ccccc1/C=C/C(=O)/C=C/C1=C(C)C(O)CCC1(C)C (stereo not shown) [Compound B65]
IC50 (PC-3 cells; [1]): 7.1 µM
IC50 (LNCaP cells; [2]): 1.9 µM
IC50 (22Rv1 cells; Table 8): 4.6 µM
IC50 (C4-2B cells; [3]): 2.6 µM

CC1=C(/C=C/C(=O)/C=C/c2cc(F)ccc2F)C(C)(C)CCC1O (stereo not shown) [Compound B66]
IC50 (PC-3 cells; [1]): 7.2 µM
IC50 (LNCaP cells; [2]): 3.5 µM
IC50 (22Rv1 cells; Table 8): 4.5 µM
IC50 (C4-2B cells; [3]): 6.9 µM

CC1=C(/C=C/C(=O)/C=C/c2ccc(F)cc2F)C(C)(C)CCC1O (stereo not shown) [Compound B67]
IC50 (PC-3 cells; [1]): 7.5 µM
IC50 (LNCaP cells; [2]): 4.3 µM
IC50 (22Rv1 cells; Table 8): 4.8 µM
IC50 (C4-2B cells; [3]): 2.1 µM

COc1ccc(/C=C/C(=O)/C=C/C2=C(C)C(O)CCC2(C)C)cc1O (stereo not shown) [Compound B69]
IC50 (PC-3 cells; [1]): 53.9 µM
IC50 (LNCaP cells; [2]): 12.3 µM
IC50 (22Rv1 cells; Table 8): 19.1 µM
IC50 (C4-2B cells; [3]): 12 µM

COc1ccc(/C=C/C(=O)/C=C/C2=C(C)C(O)CCC2(C)C)cc1OC (stereo not shown) [Compound B70]
IC50 (PC-3 cells; [1]): 6.8 µM
IC50 (LNCaP cells; [2]): 2.1 µM
IC50 (22Rv1 cells; Table 8): 8.2 µM

CCOc1ccc(/C=C/C(=O)/C=C/C2=C(C)C(O)CCC2(C)C)cc1OCC (stereo not shown) [Compound B71]
IC50 (PC-3 cells; [1]): 36.1 µM
IC50 (LNCaP cells; [2]): 5.5 µM
IC50 (22Rv1 cells; Table 8): 8.6 µM
IC50 (C4-2B cells; [3]): 10.5 µM

COc1cc(/C=C/C(=O)/C=C/C2=C(C)C(O)CCC2(C)C)cc(OC)c1OC (stereo not shown) [Compound B72]
IC50 (PC-3 cells; [1]): 4.9 µM
IC50 (LNCaP cells; [2]): 1.8 µM
IC50 (22Rv1 cells; Table 8): 3 µM
IC50 (C4-2B cells; [3]): 1.7 µM

COc1cc(OC)c(OC)cc1/C=C/C(=O)/C=C/C1=C(C)C(O)CCC1(C)C (stereo not shown) [Compound B73]
IC50 (PC-3 cells; [1]): 9.5 µM
IC50 (LNCaP cells; [2]): 3.7 µM
IC50 (22Rv1 cells; Table 8): 5.4 µM
IC50 (C4-2B cells; [3]): 3.2 µM

COc1cc(OC)c(/C=C/C(=O)/C=C/C2=C(C)C(O)CCC2(C)C)c(OC)c1 (stereo not shown) [Compound B74]
IC50 (PC-3 cells; [1]): > 25 µM
IC50 (LNCaP cells; [2]): 15.5 µM
IC50 (22Rv1 cells; Table 8): 21 µM
IC50 (C4-2B cells; [3]): 11.6 µM

COc1cc(/C=C/C(=O)/C=C/C2=C(C)C(O)CCC2(C)C)c(OCc2ccccc2)cc1OC (stereo not shown) [Compound B75]
IC50 (PC-3 cells; [1]): 25.4 µM
IC50 (LNCaP cells; [2]): 16.7 µM
IC50 (22Rv1 cells; Table 8): 19.2 µM
IC50 (C4-2B cells; [3]): 23.3 µM

CC1(C)CCC(O)C=C1/C=C/C(=O)/C=C/c1ccc2c(c1)OCO2 (stereo not shown) [Compound B76]
IC50 (PC-3 cells; [4]): 25.8 µM
IC50 (LNCaP cells; [5]): 11.2 µM
IC50 (22Rv1 cells; Table 9): 20.1 µM
IC50 (C4-2B cells; read-out: Cellular IC50 (μM) C4-2B, Table 9): 6.2 µM

CC1(C)CCC(O)C=C1/C=C/C(=O)/C=C/c1ccc2c(c1)OC(F)(F)O2 (stereo not shown) [Compound B77]
IC50 (PC-3 cells; [4]): 3.2 µM
IC50 (LNCaP cells; [5]): 1.1 µM

Cn1c(/C=C/C(=O)/C=C/C2=CC(O)CCC2(C)C)cc2ccccc21 (stereo not shown) [Compound B80]
IC50 (PC-3 cells; [4]): 19.8 µM
IC50 (LNCaP cells; [5]): 7 µM
IC50 (22Rv1 cells; Table 9): 9.5 µM

CCn1c2ccccc2c2cc(/C=C/C(=O)/C=C/C3=CC(O)CCC3(C)C)ccc21 (stereo not shown) [Compound B91]
IC50 (PC-3 cells; [4]): 8.6 µM
IC50 (LNCaP cells; [5]): 3.8 µM
IC50 (22Rv1 cells; Table 9): 4.7 µM

CC(=O)/C=C/C1=C(C)CCCC1(C)C [β-Ionone, reference compound]
Cellular IC50 (μM) PC-3 (PC-3 cells; Table 2, 72 h, max tested 50 μM (β-ionone 150 μM)): Inactive^e
Cytotoxicity, IC50 (μM) PC-3 (PC-3 cells; Table 5, β-ionone max tested 150 μM): Inactive^b
IC50 (LNCaP cells; read-out: Cellular IC50 (μM) LNCaP, Table 2, 72 h): 151 µM
IC50 (LNCaP cells; read-out: Cytotoxicity, IC50 (μM) LNCaP, Table 5): 151 µM
